In patent US20240368192A1, “Nitrogen-Containing Heterocyclic Compound, and Preparation Method Therefor, Intermediate Thereof, and Application Thereof” (Shanghai Allist Pharmaceuticals Co., Ltd., priority 2021, published 2024):
pIC50: −log10 of the molar value. Where a name gives a salt, the structure may show the parent alone.

What was measured:
Ba/F3 KRAS-G12V cells = Ba/F3 KRAS-G12V cells (Homo sapiens, UniProt P01116, G12V, cells depend on it); test: Proliferation inhibitory activity on Ba/F3 KRAS-G12V stably transfected cell line (CellTiter-Glo, 72 hours); type: cell-based, mouse; details: read-out: Ba/F3 KRAS-G12V IC50
Description: (§1) Test Example 1: Proliferation Inhibitory Activity on Ba/F3 KRAS-G12D, Ba/F3 KRAS-G12V Stably Transfected Cell Lines and AGS Tumor Cell Lines Containing KRAS G12D Mutations
(§2) To determine the proliferation inhibitory activity of the compounds in vitro on mouse pro-B cells Ba/F3 (Ba/F3 KRAS-G12D and Ba/F3 KRAS-G12V cells stably expressing KRAS G12D/V mutant proteins) and gastric cancer AGS cells expressing KRAS G12D mutant protein.
(§3) Cell sources. Ba/F3 KRAS-G12D and Ba/F3 KRAS-G12V were purchased from Kyinno Biotech (Beijing) Co., Ltd, Cat. No.: KC-1259 and KC-1261, respectively; AGS was purchased from Shanghai Bioleaf Biotech Co., Ltd.
(§4) Cells in the logarithmic growth phase were seeded in a 96-well plate (8000, 8000, 4000 cells/well, 90 μL/well for Ba/F3 KRAS-G12D, Ba/F3 KRAS-G12V, and AGS cells respectively), incubated at 37° C. for 1 day with 5% CO2, and then a gradient dilution of the test compound was added thereto (compounds 1 to 28 and comparative compounds). The details were as follows, the compound stock solution (10 mM) previously dissolved in DMSO was diluted to 10 gradient concentrations at a fold ratio (4 fold) and diluted to 10 fold of the target concentration in another 96-well plate with culture medium, and then 10 μL/well of the compound solution was added to the 96-well plate seeded with cells to reach the target concentration (10000, 2500, 625, 156, 39, 10, 2.5, 0.6, 0.15, 0.04 nM). Each concentration was provided with 3 duplicate wells and a blank control. After continued incubation at 37° C. and 5% CO2 for 72 hours, 50 μL of CellTiter-Glo*2.0 reagent (luciferase ATP bioluminescence detection reagent, purchased from Promega, Cat. No.: G9243) was added to each well, shaken for 2 minutes, and incubated at room temperature for 8 minutes, and then fluorescence luminescence intensity was detected (light collection time was 100 ms). The inhibitory rate of compounds with various concentrations on cell proliferation was calculated. Cell proliferation inhibition rate (%)=[(luminous intensitycontrol group containing cell culture medium for 72 hour−luminous intensitycompound group for 72 hour)/(luminous intensitycontrol group containing cell culture medium for 72 hours−luminous intensitycontrol group without cell culture medium for 72 hour)]×100%. GraphPad Prism 8.3 software was used to analyze the data, and nonlinear S-curve regression was used to fit the data to obtain a dose-effect curve, from which the IC50 value was calculated.

Ba/F3 KRAS-G12D cells = Ba/F3 KRAS-G12D cells (Homo sapiens, UniProt P01116, G12D, cells depend on it); test: Proliferation inhibitory activity on Ba/F3 KRAS-G12D stably transfected cell line (CellTiter-Glo, 72 hours); type: cell-based, mouse; details: read-out: Ba/F3 KRAS-G12D IC50
Description: as §1, §2, §3, §4

AGS cells = test: Proliferation inhibitory activity on AGS tumor cell line containing KRAS G12D mutation (CellTiter-Glo, 72 hours); type: cell-based; details: Homo sapiens
Description: as §1, §2, §3, §4

Sequence of Ba/F3 KRAS-G12V cells (P01116 whole entry G12V): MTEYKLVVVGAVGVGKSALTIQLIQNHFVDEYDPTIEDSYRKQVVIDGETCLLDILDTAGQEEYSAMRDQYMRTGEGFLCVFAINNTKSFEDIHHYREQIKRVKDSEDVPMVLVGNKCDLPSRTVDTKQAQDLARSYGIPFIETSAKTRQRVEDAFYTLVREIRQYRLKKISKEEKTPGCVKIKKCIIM
Sequence of Ba/F3 KRAS-G12D cells (P01116 whole entry G12D): as the sequence (P01116 whole entry G12V) above, with V12D counted along it

SMILES	GI50 (Ba/F3 KRAS-G12V cells) [µM]	GI50 (Ba/F3 KRAS-G12D cells) [µM]	pIC50 (AGS cells)
Cc1cc(N)nc(-c2ncc3c(N4C[C@@H](N)C[C@H](O)C4)nc(OC[C@@]45CCCN4C[C@H](F)C5)nc3c2F)c1C(F)(F)F [Compound 1, (3S,5S)-5-Amino-1-(7-(6-amino-4-methyl-3-(trifluoromethyl)pyridin-2-yl)-8-fluoro-2-(((2R,7aS)-2-fluorohexahydro-1H-pyrrolizin-7a-yl)methoxy)pyrido[4,3-d]pyrimidin-4-yl)piperidin-3-ol bis(2,2,2-trifluoroacetate)]	5 to 10	–	–
Cc1cc(N)nc(-c2ncc3c(N4CCC[C@H](N)C4)nc(OC[C@@]45CCCN4C[C@H](F)C5)nc3c2F)c1C(F)(F)F [Compound 2, 6-(4-((S)-3-Aminopiperidin-1-yl)-8-fluoro-2-(((2R,7aS)-2-fluorohexahydro-1H-pyrrolizin-7a-yl)methoxy)pyrido[4,3-d]pyrimidin-7-yl)-4-methyl-5-(trifluoromethyl)pyridin-2-amine tetrakis(2,2,2-trifluoroacetate)]	5 to 10	–	–
N[C@H]1CCCN(c2nc(OC[C@@]34CCCN3C[C@H](F)C4)nc3c(F)c(-c4cc(O)cc5ccccc45)ncc23)C1 [Compound 3, 4-(4-((S)-3-Aminopiperidin-1-yl)-8-fluoro-2-(((2R,7aS)-2-fluorohexahydro-1H-pyrrolizin-7a-yl)methoxy)pyrido[4,3-d]pyrimidin-7-yl)naphthalen-2-ol]	5 to 10	–	–
N[C@H]1C[C@H](O)CN(c2nc(OC[C@@]34CCCN3C[C@H](F)C4)nc3c(F)c(-c4cc(O)cc5ccccc45)ncc23)C1 [Compound 4, (3S,5S)-5-Amino-1-(8-fluoro-2-(((2R,7aS)-2-fluorohexahydro-1H-pyrrolizin-7a-yl)methoxy)-7-(3-hydroxynaphthalen-1-yl)pyrido[4,3-d]pyrimidin-4-yl)piperidin-3-ol]	5 to 10	–	–
N[C@@H]1CCCN(c2nc(OC[C@@]34CCCN3C[C@H](F)C4)nc3c(F)c(-c4cc(O)cc5ccccc45)ncc23)C1 [Compound 5, 4-(4-((R)-3-Aminopiperidin-1-yl)-8-fluoro-2-(((2R,7aS)-2-fluorohexahydro-1H-pyrrolizin-7a-yl)methoxy)pyrido[4,3-d]pyrimidin-7-yl)naphthalen-2-ol]	5 to 10	–	–
C#Cc1c(F)ccc2cc(O)cc(-c3ncc4c(N5CCC[C@H](N)C5)nc(OC[C@@]56CCCN5C[C@H](F)C6)nc4c3F)c12 [Compound 7, 4-(4-((S)-3-Aminopiperidin-1-yl)-8-fluoro-2-(((2R,7aS)-2-fluorohexahydro-1H-pyrrolizin-7a-yl)methoxy)pyrido[4,3-d]pyrimidin-7-yl)-5-ethynyl-6-fluoronaphthalen-2-ol]	5 to 10	5 to 10	–
C#Cc1c(F)ccc2cc(O)cc(-c3ncc4c(N5C[C@@H](N)C[C@H](O)C5)nc(OC[C@@]56CCCN5C[C@H](F)C6)nc4c3F)c12 [Compound 8, (3S,5S)-5-Amino-1-(7-(8-ethynyl-7-fluoro-3-hydroxynaphthalen-1-yl)-8-fluoro-2-(((2R,7aS)-2-fluorohexahydro-1H-pyrrolizin-7a-yl)methoxy)pyrido[4,3-d]pyrimidin-4-yl)piperidin-3-ol]	5 to 10	–	–
C#Cc1c(F)ccc2cc(O)cc(-c3ncc4c(N5C[C@@H]6C[C@]6(N)C5)nc(OC[C@@]56CCCN5C[C@H](F)C6)nc4c3F)c12 [Compound 9, 4-(4-((1R,5S)-1-Amino-3-azabicyclo[3.1.0]hexan-3-yl)-8-fluoro-2-(((2R,7aS)-2-fluorohexahydro-1H-pyrrolizin-7a-yl)methoxy)pyrido[4,3-d]pyrimidin-7-yl)-5-ethynyl-6-fluoronaphthalen-2-ol]	5 to 10	5 to 10	–
C#Cc1c(F)ccc2cc(O)cc(-c3ncc4c(N5C[C@@H]6[C@@H](N)[C@@H]6C5)nc(OC[C@@]56CCCN5C[C@H](F)C6)nc4c3F)c12 [Compound 11, 4-(4-((1R,5S,6R)-6-Amino-3-azabicyclo[3.1.0]hexan-3-yl)-8-fluoro-2-(((2R,7aS)-2-fluorohexahydro-1H-pyrrolizin-7a-yl)methoxy)pyrido[4,3-d]pyrimidin-7-yl)-5-ethynyl-6-fluoronaphthalen-2-ol dihydrochloride]	5 to 10	–	–
C#Cc1c(F)ccc2cc(O)cc(-c3ncc4c(N5C[C@@H]6[C@H](N)[C@@H]6C5)nc(OC[C@@]56CCCN5C[C@H](F)C6)nc4c3F)c12 [Compound 12, 4-(4-((1R,5S,6S)-6-Amino-3-azabicyclo[3.1.0]hexan-3-yl)-8-fluoro-2-(((2R,7aS)-2-fluorohexahydro-1H-pyrrolizin-7a-yl)methoxy)pyrido[4,3-d]pyrimidin-7-yl)-5-ethynyl-6-fluoronaphthalen-2-ol bis(2,2,2-trifluoroacetate)]	5 to 10	–	–
C#Cc1c(F)ccc2cc(O)cc(-c3ncc4c(N5C[C@H](N)C[C@H](O)C5)nc(OC[C@@]56CCCN5C[C@H](F)C6)nc4c3F)c12 [Compound 13, (3S,5R)-5-Amino-1-(7-(8-ethynyl-7-fluoro-3-hydroxynaphthalen-1-yl)-8-fluoro-2-(((2R,7aS)-2-fluorohexahydro-1H-pyrrolizin-7a-yl)methoxy)pyrido[4,3-d]pyrimidin-4-yl)piperidin-3-ol]	5 to 10	–	–
C#Cc1c(F)ccc2cc(O)cc(-c3ncc4c(N5C[C@H](N)C[C@@H](O)C5)nc(OC[C@@]56CCCN5C[C@H](F)C6)nc4c3F)c12 [Compound 14, (3R,5R)-5-Amino-1-(7-(8-ethynyl-7-fluoro-3-hydroxynaphthalen-1-yl)-8-fluoro-2-(((2R,7aS)-2-fluorohexahydro-1H-pyrrolizin-7a-yl)methoxy)pyrido[4,3-d]pyrimidin-4-yl)piperidin-3-ol bis(2,2,2-trifluoroacetate)]	5 to 10	–	–
C#Cc1c(F)ccc2cc(O)cc(-c3ncc4c(N5CC[C@H](N)C5)nc(OC[C@@]56CCCN5C[C@H](F)C6)nc4c3F)c12 [Compound 15, 4-(4-((S)-3-Aminopyrrolidin-1-yl)-8-fluoro-2-(((2R,7aS)-2-fluorohexahydro-1H-pyrrolizin-7a-yl)methoxy)pyrido[4,3-d]pyrimidin-7-yl)-5-ethynyl-6-fluoronaphthalen-2-ol]	5 to 10	5 to 10	–
C#Cc1c(F)ccc2cc(O)cc(-c3ncc4c(N5C[C@@H](N)C[C@@H](O)C5)nc(OC[C@@]56CCCN5C[C@H](F)C6)nc4c3F)c12 [Compound 16, (3R,5S)-5-Amino-1-(7-(8-ethynyl-7-fluoro-3-hydroxynaphthalen-1-yl)-8-fluoro-2-(((2R,7aS)-2-fluorohexahydro-1H-pyrrolizin-7a-yl)methoxy)pyrido[4,3-d]pyrimidin-4-yl)piperidin-3-ol bis(2,2,2-trifluoroacetate)]	5 to 10	–	–
Cc1cc(N)nc(-c2nc(N)c3c(N4C[C@H]5CC[C@@H](C4)N5)nc(OC[C@@]45CCCN4C[C@H](F)C5)nc3c2F)c1C(F)(F)F [Compound 19, 7-(6-Amino-4-methyl-3-(trifluoromethyl)pyridin-2-yl)-4-((1R,5S)-3,8-diazabicyclo[3.2.1]octan-3-yl)-8-fluoro-2-(((2R,7aS)-2-fluorohexahydro-1H-pyrrolizin-7a-yl)methoxy)pyrido[4,3-d]pyrimidin-5-amine]	5 to 10	–	–
C#Cc1c(F)ccc2cc(O)cc(-c3ncc4c(C5=C[C@@H]6CC[C@H](C5)N6)nc(OC[C@@]56CCCN5C[C@H](F)C6)nc4c3F)c12 [Compound 23, 4-(4-((1R,5S)-8-Azabicyclo[3.2.1]oct-3-en-3-yl)-8-fluoro-2-(((2R,7aS)-2-fluorohexahydro-1H-pyrrolizin-7a-yl)methoxy)pyrido[4,3-d]pyrimidin-7-yl)-5-ethynyl-6-fluoronaphthalen-2-ol]	5 to 10	–	5.60
[2H]C([2H])(Oc1nc(N2C[C@H]3CC[C@@H](C2)N3)c2c(Cl)nc(-c3cc(O)cc4ccc(F)c(C#C)c34)c(F)c2n1)[C@@]12CCCN1C[C@H](F)C2 [Compound 27, 4-(4-((1R,5S)-3,8-Diazabicyclo[3.2.1]octan-3-yl)-5-chloro-8-fluoro-2-(((2R,7aS)-2-fluorotetrahydro-1H-pyrrolizin-7a(5H)-yl)methoxy-d2)pyrido[4,3-d]pyrimidin-7-yl)-5-ethynyl-6-fluoronaphthalen-2-ol]	–	0.001	8.22
